Test results as given in ChEMBL document CHEMBL1132317, “Solution structure of iron(III)-anthracycline complexes” (J Med Chem, 1999).

Tested on: K562
Assay: Cytotoxic activity against K562 erythroleukemic cells
Format: functional, cell-based
Details: Homo sapiens

## CC(=O)[C@]1(O)Cc2c(O)c3c(c(O)c2[C@@H](O[C@H]2C[C@H](N)[C@H](O)[C@H](C)O2)C1)C(=O)c1ccccc1C3=O [IDARUBICIN]
  IC50: 2 nM
